Patent EP0540676B1, “PEPTIDE COMPOUNDS HAVING GROWTH HORMONE RELEASING ACTIVITY” (POLYGEN HOLDING CORPORATION, priority 1990, dated 1994)
“And” between values parts separate entries of the source, which are not always exact repeats. Equal entries are not always repeated. Where a SMILES comes first, the peptide text is derived from it. [ ]: non-standard residue; d: D form.

Test system: GH Release
Assay: In vivo GH release in pentobarbital anesthetized rats (serum GH by RIA)
Settings: for GH Released by Compound in Column A: Table 4, pentobarbital anesthetized rats; for GH Released by Compound in Column A / GH Released Serum GH ng/ml ± SEM (N=6): sacrificed 10 minutes after final injection; for GH Released by Compound in Column A / GH Released: mean ± SEM, six rats; for activity compared with peptides having another residue in the A₂ position: in words, summary of Tables 3, 4, 5 and 6, rats; for GH Released: Table 5, anesthetized rats; for GH Released Serum GH ng/ml ± SEM (N=6): Table 6, pentobarbital anesthetized rats (table title)
Experimental: Immature female Sprague-Dawley rats were obtained from the Charles River Laboratories (Wilmington, MA). After arrival they were housed at 25 °C with a 14:10 hour light:dark cycle. Water and Purina rat chow were available ad libitum. Pups were kept with their mothers until 21 days of age.
Twenty-six day old rats, six rats per treatment group, were anesthetized interperitoneally with 50 mg/Kg of pentobarbital 20 minutes prior to i.v. treatment with peptide. Normal saline with 0.1% gelatin was the vehicle for intravenous (i.v.) injections of the peptides. The anesthetized rats, weighing 55-65 grams, were injected i.v. with the quantity of growth hormone releasing compounds indicated in Tables 3, 4 and 5. Injection was made as a 0.2 mL solution into the jugular vein.
All animals were sacrificed by guillotine 10 minutes after the final test injection (see Tables 3 and 4). Trunk blood for the determination of blood GH levels was collected following decapitation. After allowing the blood to clot, it was centrifuged and the serum was separated from the clot. Serum was kept fozen until the day of sampling for radioimmunasay (RIA) determination of growth hormone levels according to the following procedure, as developed by the National Institute of Arthritis, Diabetes and Digestive and Kidney Diseases (NIADDK).
Reagents are generally added to the RIA analysis tubes at a single sitting, at refrigerator temperature (about 4 °C) in the following sequence: • (a) buffer, • (b) "cold" (i.e., non-radioactive) standard or unknown serum sample to be analyzed, • (c) radio-iodinated growth hormone antigen, and • (d) growth hormone antiserum. Reagent addition is generally carried out so that there is achieved a final RIA tube dilution of about 1:30,000 (antiserum to total liquid volume; vol:vol).
The mixed reagents are then typically incubated at room temperature (about 25 °C) for about 24 hours prior to addition of a second antibody (e.g., goat or rabbit anti-monkey gamma globulin serum) which binds to and causes precipitation of the complexed growth hormone anti serum. Precipitated contents of the RIA tubes are then analyzed for the number of counts in a specified period of time in a gamma scintillation counter. A standard curve is prepared by plotting number of radioactive counts versus growth hormone (GH) level. GH levels of unknowns are then determined by reference to the standard curve.
Serum GH was measured by RIA with reagents provided by the National Hormone and Pituitary Program.
Serum levels in Tables 3, 4, 5 and 6 are recorded in ng/mL in terms of the rat GH standard of 0.61 International Units/mg (IU/mg). Data is recorded as the mean +/- standard error of the mean (SEM). Statistical analysis was performed with Student's t-test. NS means the difference was not statistically significant. In Tables 3, 4, 5 and 6 the results shown are the average of studies with six rats.

[1] = Total Dose 0.3 µg, several experiments with different controls
[2] = Total Dose 1.0 µg, several experiments with different controls

C[C@H](N)C(=O)N[C@@H](Cc1c[nH]cn1)C(=O)N1CCC[C@@H]1C(=O)N[C@@H](C)C(=O)N[C@@H](Cc1c[nH]c2ccccc12)C(=O)N[C@H](Cc1ccccc1)C(=O)N[C@@H](CCCCN)C(N)=O [AlaHisDProAlaTrpDPheLysNH₂] (HELM PEPTIDE1{A.H.[dP].A.W.[dF].K.[am]}$$$$V2.0)
GH Released by Compound in Column A (Total Dose .3 µg i.v.): 262 ± 51 ng/mL

C[C@H](NC(=O)[C@@H](Cc1ccc2ccccc2c1)NC(=O)[C@@H](N)Cc1c[nH]cn1)C(=O)N[C@@H](Cc1c[nH]c2ccccc12)C(=O)N[C@H](Cc1ccccc1)C(=O)N[C@@H](CCCCN)C(N)=O [His-D^βNal-Ala-Trp-DPhe-Lys-NH₂] (HELM PEPTIDE1{H.[O=C([C@@H](Cc1ccc2ccccc2c1)N[*:1])[*:2]].A.W.[dF].K.[am]}$$$$V2.0)
activity compared with peptides having another residue in the A₂ position: more active than compounds having DTrp, D^αNal, DAsp, and DCys (SMe) in the A₂ position

C[C@H](NC(=O)[C@@H](N)Cc1c[nH]cn1)C(=O)N[C@H](Cc1c[nH]c2ccccc12)C(=O)N[C@@H](C)C(=O)N[C@@H](Cc1c[nH]c2ccccc12)C(=O)N[C@H](Cc1ccccc1)C(=O)N[C@@H](CCCCN)C(N)=O [His-Ala-DTrp-Ala-Trp-DPhe-Lys-NH₂] (HELM PEPTIDE1{H.A.[dW].A.W.[dF].K.[am]}$$$$V2.0)
GH Released (Total Dose 1.0 µg i.v.): 830 ± 103 ng/mL
GH Released (Total Dose 3.0 µg i.v.): 2588 ± 341 ng/mL
GH Released (Total Dose .3 µg i.v.): 261 ± 32 ng/mL

C[C@H](N)C(=O)N[C@H](Cc1ccc2ccccc2c1)C(=O)N[C@@H](C)C(=O)N[C@@H](Cc1c[nH]c2ccccc12)C(=O)N[C@H](Cc1ccccc1)C(=O)N[C@@H](CCCCN)C(N)=O [Ala-DβNal-Ala-Trp-DPhe-Lys-NH₂] (HELM PEPTIDE1{A.[O=C([C@@H](Cc1ccc2ccccc2c1)N[*:1])[*:2]].A.W.[dF].K.[am]}$$$$V2.0)
GH Released Serum GH ng/ml ± SEM (N=6) [1]: 363 ± 73 ng/mL
GH Released Serum GH ng/ml ± SEM (N=6) [2]: 1450 ± 294 ng/mL
GH Released Serum GH ng/ml ± SEM (N=6) (Total Dose 3.0 µg): 2072 ± 208 ng/mL
GH Released Serum GH ng/ml ± SEM (N=6) (Total Dose 10.0 µg): 2698 ± 369 ng/mL

C[C@H](N)C(=O)N[C@@H](Cc1c[nH]cn1)C(=O)N[C@H](Cc1c[nH]cn1)C(=O)N[C@@H](C)C(=O)N[C@@H](Cc1c[nH]c2ccccc12)C(=O)N[C@H](Cc1ccccc1)C(=O)N[C@@H](CCCCN)C(N)=O [AlaHisDHisAlaTrpDPheLysNH₂] (HELM PEPTIDE1{A.H.[dH].A.W.[dF].K.[am]}$$$$V2.0)
GH Released by Compound in Column A (Total Dose .3 µg i.v.): 268 ± 54 ng/mL

C[C@H](NC(=O)[C@@H](Cc1c[nH]c2ccccc12)NC(=O)[C@@H](N)Cc1c[nH]cn1)C(=O)N[C@@H](Cc1c[nH]c2ccccc12)C(=O)N[C@H](Cc1ccccc1)C(=O)N[C@@H](CCCCN)C(N)=O [His-DTrp-Ala-Trp-DPhe-Lys-NH₂] (HELM PEPTIDE1{H.[dW].A.W.[dF].K.[am]}$$$$V2.0)
GH Released (Total Dose 1.0 µg i.v.): 1531 ± 303 ng/mL
GH Released (Total Dose 3.0 µg i.v.): 2349 ± 267 ng/mL
GH Released (Total Dose .1 µg i.v.): 512 ± 43 ng/mL
GH Released (Total Dose .3 µg i.v.): 566 ± 114 ng/mL

C[C@H](N)C(=O)N[C@@H](Cc1c[nH]cn1)C(=O)N[C@H](Cc1ccc2ccccc2c1)C(=O)N[C@@H](C)C(=O)N[C@@H](Cc1c[nH]c2ccccc12)C(=O)N[C@H](Cc1ccccc1)C(=O)N[C@@H](CCCCN)C(N)=O [Ala-His-DβNal-Ala-Trp-DPhe-Lys-NH₂, Ala-His-D^βNal-Ala-Trp-DPhe-Lys-NH₂] (HELM PEPTIDE1{A.H.[O=C([C@@H](Cc1ccc2ccccc2c1)N[*:1])[*:2]].A.W.[dF].K.[am]}$$$$V2.0)
GH Released Serum GH ng/ml ± SEM (N=6) (Total Dose 0.1 µg, several experiments with different controls): 822 ± 243 ng/mL and 610 ± 90 ng/mL
GH Released Serum GH ng/ml ± SEM (N=6) [1]: 1418 ± 302 ng/mL and 1746 ± 318 ng/mL and 1549 ± 292 ng/mL and 1140 ± 187 ng/mL
GH Released Serum GH ng/ml ± SEM (N=6) [2]: 2201 ± 269 ng/mL and 2610 ± 176 ng/mL and 2180 ± 284 ng/mL and 2909 ± 257 ng/mL
GH Released Serum GH ng/ml ± SEM (N=6) (Total Dose 3.0 µg): 3686 ± 436 ng/mL
activity compared with peptides having another residue in the A₂ position: more active than the equivalent DTrp compound

CSC[C@@H](NC(=O)[C@@H](N)Cc1c[nH]cn1)C(=O)N[C@@H](C)C(=O)N[C@@H](Cc1c[nH]c2ccccc12)C(=O)N[C@H](Cc1ccccc1)C(=O)N[C@@H](CCCCN)C(N)=O [His-DCys(SMe)-Ala-Trp-DPhe-Lys-NH₂] (H-H[dC](Me)AW[dF]K-NH2)
GH Released (Total Dose 1.0 µg i.v.): 193 ± 28 ng/mL
GH Released (Total Dose 3.0 µg i.v.): 180 ± 34 ng/mL
GH Released (Total Dose .3 µg i.v.): 178 ± 28 ng/mL

C[C@H](NC(=O)[C@@H](Cc1ccccc1)NC(=O)[C@H](Cc1c[nH]c2ccccc12)NC(=O)[C@H](C)NC(=O)[C@@H](Cc1ccc2ccccc2c1)NC(=O)[C@@H](N)Cc1c[nH]cn1)C(=O)N[C@@H](CCCCN)C(N)=O [His-D^βNal-Ala-Trp-DPhe-Ala-Lys-NH₂] (HELM PEPTIDE1{H.[O=C([C@@H](Cc1ccc2ccccc2c1)N[*:1])[*:2]].A.W.[dF].A.K.[am]}$$$$V2.0)
GH Released (Total Dose 1.0 µg i.v.): 1593 ± 359 ng/mL
GH Released (Total Dose 3.0 µg i.v.): 3337 ± 583 ng/mL
GH Released (Total Dose .1 µg i.v.): 484 ± 89 ng/mL
GH Released (Total Dose .3 µg i.v.): 971 ± 241 ng/mL

C[C@H](NC(=O)[C@@H](Cc1ccccc1)NC(=O)[C@H](Cc1c[nH]c2ccccc12)NC(=O)[C@H](C)NC(=O)[C@@H](Cc1c[nH]c2ccccc12)NC(=O)[C@@H](N)Cc1c[nH]cn1)C(=O)N[C@@H](CCCCN)C(N)=O [His-DTrp-Ala-Trp-DPhe-Ala-Lys-NH₂] (HELM PEPTIDE1{H.[dW].A.W.[dF].A.K.[am]}$$$$V2.0)
GH Released (Total Dose 1.0 µg i.v.): 1965 ± 366 ng/mL
GH Released (Total Dose 3.0 µg i.v.): 4553 ± 670 ng/mL
GH Released (Total Dose .1 µg i.v.): 420 ± 105 ng/mL
GH Released (Total Dose .3 µg i.v.): 900 ± 163 ng/mL

C[C@H](N)C(=O)N[C@@H](Cc1c[nH]cn1)C(=O)N[C@H](Cc1c[nH]c2ccccc12)C(=O)N[C@@H](C)C(=O)N[C@@H](Cc1c[nH]c2ccccc12)C(=O)N[C@H](Cc1ccccc1)C(=O)N[C@@H](CCCCN)C(N)=O [AlaHisDTrpAlaTrpDPheLysNH₂] (HELM PEPTIDE1{A.H.[dW].A.W.[dF].K.[am]}$$$$V2.0)
GH Released by Compound in Column A (Total Dose .3 µg i.v.): 901 ± 21 ng/mL

C[C@H](NC(=O)[C@@H](CC(=O)O)NC(=O)[C@@H](N)Cc1c[nH]cn1)C(=O)N[C@@H](Cc1c[nH]c2ccccc12)C(=O)N[C@H](Cc1ccccc1)C(=O)N[C@@H](CCCCN)C(N)=O [His-DAsp-Ala-Trp-DPhe-Lys-NH₂] (HELM PEPTIDE1{H.[dD].A.W.[dF].K.[am]}$$$$V2.0)
GH Released (Total Dose 1.0 µg i.v.): 154 ± 63 ng/mL
GH Released (Total Dose 3.0 µg i.v.): 155 ± 34 ng/mL
GH Released (Total Dose 10.0 µg i.v.): 163 ± 44 ng/mL
GH Released (Total Dose 30.0 µg i.v.): 224 ± 62 ng/mL
GH Released (Total Dose 100.0 µg i.v.): 178 ± 83 ng/mL

C[C@H](N)C(=O)N[C@@H](Cc1c[nH]cn1)C(=O)N[C@H](Cc1ccccc1)C(=O)N[C@@H](C)C(=O)N[C@@H](Cc1c[nH]c2ccccc12)C(=O)N[C@H](Cc1ccccc1)C(=O)N[C@@H](CCCCN)C(N)=O [AlaHisDPheAlaTrpDPheLysNH₂] (HELM PEPTIDE1{A.H.[dF].A.W.[dF].K.[am]}$$$$V2.0)
GH Released by Compound in Column A (Total Dose .3 µg i.v.): 616 ± 74 ng/mL

C[C@H](NC(=O)[C@@H](Cc1cccc2ccccc12)NC(=O)[C@@H](N)Cc1c[nH]cn1)C(=O)N[C@@H](Cc1c[nH]c2ccccc12)C(=O)N[C@H](Cc1ccccc1)C(=O)N[C@@H](CCCCN)C(N)=O [His-D^αNal-Ala-Trp-DPhe-Lys-NH₂] (HELM PEPTIDE1{H.[O=C([C@@H](Cc1cccc2ccccc12)N[*:1])[*:2]].A.W.[dF].K.[am]}$$$$V2.0)
GH Released (Total Dose 1.0 µg i.v.): 1130 ± 179 ng/mL
GH Released (Total Dose 3.0 µg i.v.): 2319 ± 139 ng/mL
GH Released (Total Dose .1 µg i.v.): 280 ± 70 ng/mL
GH Released (Total Dose .3 µg i.v.): 439 ± 122 ng/mL
